Assays:
[1] = system: E. coli strains; test: inhibition of E. coli strains on DMSal agar for selective growth of Salmonella (Example 16); type: cell-based, Escherichia coli; conditions: DMSal agar
Method: The experiments were conducted as follows: nutrient agar medium was autoclaved and, on cooling (but prior to setting) filter-sterilised alaphosphin or AEP were incorporated at final concentrations of 1 mM, 2 mM, 5 mM and 10 mM, and the medium used to pour plates. Control plates were prepared using nutrient agar without alaphosphin or AEP. A single colony of the organism under test was inoculated in 10 ml of nutrient broth and incubated (without agitation) at 37° C. for 4 hours.
Trp-AEP was compared to alaphosphin (Ala-AEP) for selective growth of Salmonella strains on DMSal agar.

[2] = system: strains of Escherichia coli; test: Bioscreen growth in Lab-Lemco broth (Example 11), E. coli strains; type: cell-based; conditions: 64 μg/ml, Lab-Lemco broth pH 5.7, 37° C., four E. coli strains
Method: Thus, Ala-AEP was dissolved in deionised water (7.0 mg/ml), filter sterilised, and an amount of the solution added to autoclaved Lab-Lemco broth (20 g/l; pH 5.7) to give a concentration of 70 μg/ml. Volumes (300 μl) of this solution were then pipetted into the wells of Bioscreen microtitre plates and 30 μl quantities of 1 in 10,000 dilutions of overnight cultures added (reducing the final alaphosphin concentration to 64 μg/m). Plates were then covered, incubated at 37° C., and the opacity of the organism suspensions measured using a Bioscreen instrument. Growth of the Salmonella strains was unaffected whereas the E. coli strains were all inhibited.
Typical results are shown in FIG. 16, which is a graph of Optical Density against time (hours). Growth of S. indiana OCC 2412 and S. worthington OCC 634 is denoted by crosses and circles respectively.

[3] = system: K. pneumoniae CMCC 3077; test: growth on nutrient agar, mixed culture with S. aureus (Example 6); type: cell-based, Klebsiella pneumoniae; conditions: K. pneumoniae in mixed culture with S. aureus
Source text: Example 1 was repeated, this time using a mixed culture of K. pneumoniae CMCC 3077 and S. aureus OCC 102. The results for growth in the presence of AEP or alaphosphin are shown in FIGS. 7 and 8 respectively: empty columns represent growth of S. aureus, the shaded columns represent growth of K. pneumoniae. […] Accordingly, there is a considerable alaphosphin concentration range over which S. aureus will readily grow whilst K. pneumoniae will be inhibited. Even if K. pneumoniae cells lyse due to the toxic effect of AEP released intracellularly, the AEP is not toxic for S. aureus at the concentrations involved.

[4] = system: Salmonella typhimurium OCC 1870; test: growth on nutrient agar streak plates, pure culture (Example 2); type: cell-based; conditions: S. typhimurium OCC 1870, nutrient agar, 0-10 mM tested
Source text: Example 1 was repeated, using Salmonella typhimurium OCC 1870 as the test organism. The results are shown in FIG. 3, which uses the same key as FIG. 2.

SMILES: C[C@H](N)C(=O)N[C@@H](C)P(=O)(O)O [alaphosphin, L-alanyl-L-1-aminoethylphosphonic acid]
- concentration needed to inhibit the growth of E. coli strains [1]: 1.5 µg/mL
- growth (optical density) in presence of the agent [2]: all inhibited
- concentration at which growth is completely inhibited [3]: above 1 mM
- concentration at which growth is completely inhibited [4]: ≥ 5 mM

Source: patent publication US20130189764A1, “SELECTIVE GROWTH MEDIA” (Oxide Limited, priority 2000, published 2013)
